Results published in patent publication US20100028447A1, “Intranasal, Buccal, And Sublingual Administration Of Metanicotine Analogs” (TARGACEPT, INC., priority 2007, published 2010).
“Also recorded” adds a separate entry of the source.

Columns and labels:
[1] = In situ brain perfusion, single time-point method; details: for Kin relative to values reported for drugs that do not substantially penetrate the CNS: 50 μM
Procedure: Animals used in this study were Sprague-Dawley rats (approximate weight 250-300 grams), obtained from Hilltop Lab Animals, Scottdale, Pa. Upon arrival, the rats were assigned randomly to treatment groups and acclimated for at least 24 hours. The animals were housed two per cage and identified by cage labels. A single room was used for this study. The animals were supplied with water and a commercial rodent diet ad libitum. On the day of the experiment, each rat was anesthetized intraperitoneally with Ketamine HCl/Xylazine HCl solution prior to being implanted with a cannula into the left carotid artery. Branch arteries were […], and the cardiac supply was cut off prior to brain perfusion.
Perfusion was performed using the single time-point method. […] Following 30 seconds of perfusion, the pump was stopped, and the brain was removed from the skull immediately. The brain was cut longitudinally in […]. Each left cerebral hemisphere was placed into a chilled tube, frozen on dry ice, and stored frozen at −60° C. to −80° C. until analyzed. […] Test articles were perfused at concentrations of 50 μM. The outline of the experimental treatments and the target and measured concentrations of the test articles and control compounds in the perfusate are presented in Table 3.
The left brain hemisphere from each rat was thawed and weighed. Methanol (20% aqueous) was added to each left brain hemisphere at approximately 4 mL per 1 g of brain tissue, and the mixture was homogenized using sonication with a VirSonic Ultrasonic Cell Disruptor 100 (VirTis). The test articles and two reference compounds were analyzed in the resulting homogenate by using LC/MS/MS.
The unidirectional brain transfer constants Kin (mL/g/min) were determined for the test articles and the high permeability reference, antipyrine, using the following equation for the single-point perfusion assay: […]
where: Cbr/Cpf is the apparent brain distribution volume (mL/g of brain tissue); Cbr is the concentration of drug in the brain tissue (pmol of drug per g of brain tissue); Cpf is the drug concentration in the perfusion fluid (pmol/mL of perfusate); and t is the net perfusion time (minutes).
Graphic representation and statistical analyses of the data were performed using GraphPad Prism software.

[2] = tested on: cultured human respiratory epithelium; test: Permeation across cultured human respiratory epithelium (EpiAir tissue), apical-to-basolateral Papp; details: p<0.05, two-tailed t-test, N=3
Source text: An in vitro model of MatTek EpiAir® tissue was used for the permeability assessment of the test articles and control compounds. The EpiAir® culture consists of cells that have been cultured to form a pseudo-stratified, highly differentiated model closely resembling the epithelial tissue of the human respiratory tract. The histological cross-sections of the cultured tissue reveal a pseudo-stratified mucociliary phenotype.
EpiAir® tissues plated in 12 well plates were pre-equilibrated for the assay by culturing them for 24 hours at 37° C. with 5% CO2 in a humidified incubator. On the day of the assay, the cultures were washed two times with Dulbeccos' Phosphate Buffered Saline (DPBS buffer) at pH 7.4, and then dosed with donor and receiver buffer applied to the apical and basolateral surfaces of the culture, respectively. The receiver buffer consisted of DPBS, at pH 7.4. The donor solution consisted of DPBS buffer containing the appropriate compounds as specified in Table 1. All treatments were performed in triplicate. The receiver buffer was sampled at 15, 30, 60, and 120 minutes, and the donor buffer was sampled at 120 minutes.
The Lucifer Yellow concentration in the receiver samples was measured using a FluoStar fluorescence plate reader (BMG Laboratories, Durham, N.C.).
The apparent permeability coefficient, Papp, was calculated as follows: […]
where: dCr/dt is the slope of the cumulative concentration in the receiver compartment versus time; Vr is the volume of the receiver compartment; A is the surface area of epithelium available for permeation; and Co is the dosing solution concentration.

[3] = Sprague-Dawley, rat, in vivo, 30 s
[4] = Table 4 Treatment 2: Compound B perfused with references + MAO inhibitor Pargyline, Rat 1
[5] = Table 4 Treatment 2: Compound B perfused with references + MAO inhibitor Pargyline, Rat 2
[6] = Table 4 Treatment 2: Compound B perfused with references + MAO inhibitor Pargyline, Rat 3
[7] = Table 5 Treatment 1: Compound A perfused with references, Average ± STD
[8] = Table 5 Treatment 1: Compound A perfused with references, Rat 1
[9] = Table 5 Treatment 1: Compound A perfused with references, Rat 2
[10] = Table 5 Treatment 1: Compound A perfused with references, Rat 3
[11] = Table 5 Treatment 2: Compound A perfused with references + CYP2D6 inhibitor Quinidine, Average ± STD
[12] = Table 5 Treatment 2: Compound A perfused with references + CYP2D6 inhibitor Quinidine, Rat 1
[13] = Table 5 Treatment 2: Compound A perfused with references + CYP2D6 inhibitor Quinidine, Rat 2
[14] = Table 5 Treatment 2: Compound A perfused with references + CYP2D6 inhibitor Quinidine, Rat 3

CNCC/C=C/c1cccnc1 [Compound B, N-methyl-(4-pyridin-3-yl-but-3-enyl)-amine]
Brain concentration and Kin in the presence of the MAO inhibitor Pargyline compared to alone [1, 3]: ^Significantly higher than the corresponding values of Compound B in the absence of enzymatic inhibitor (p < 0.05, two-tailed t-test). | Kin relative to values reported for drugs that do not substantially penetrate the CNS [1, 3]: more than 100 times | Brain Concentration (corrected for drug retained in vascular volume) ([1]; Table 4 Treatment 1: Compound B perfused with references, Average ± STD): 2681.0 ± 513.0 pmol/g | Brain Concentration (corrected for drug retained in vascular volume) ([1]; Table 4 Treatment 1: Compound B perfused with references, Rat 1): 2725.9 pmol/g | Brain Concentration (corrected for drug retained in vascular volume) ([1]; Table 4 Treatment 1: Compound B perfused with references, Rat 2): 3170.1 pmol/g | Brain Concentration (corrected for drug retained in vascular volume) ([1]; Table 4 Treatment 1: Compound B perfused with references, Rat 3): 2147.0 pmol/g | Brain Concentration (corrected for drug retained in vascular volume) ([1]; Table 4 Treatment 2: Compound B perfused with references + MAO inhibitor Pargyline, Average ± STD): 3652.8^ ± 293.1 pmol/g | Brain Concentration (corrected for drug retained in vascular volume) [1, 4]: 3358.2 pmol/g | Kin [1, 4]: 0.110 mL/g/min | Brain Concentration (corrected for drug retained in vascular volume) [1, 5]: 3655.8 pmol/g | Kin [1, 5]: 0.120 mL/g/min | Brain Concentration (corrected for drug retained in vascular volume) [1, 6]: 3944.4 pmol/g | Kin [1, 6]: 0.129 mL/g/min | Brain concentration and Kin in the presence of the MAO inhibitor Pargyline compared to alone ([1]; rat, in vivo): significantly increased | Potential to penetrate the brain ([1]; rat, in vivo): good potential | Permeation (Papp) in the presence of the MAO inhibitor Pargyline compared to alone [2]: significantly lower Papp value in the absence, than in the presence; also recorded: significant increased

CN[C@@H](C)C/C=C/c1cncc(OC)c1 [Compound A, (2S)-(4E)-N-methyl-5-(3-(5-methoxypyridin)yl)-4-penten-2-amine]
Brain penetration (brain concentration, Kin) in the absence or presence of the CYP2D6 inhibitor Quinidine ([1]; N=3): no significant difference; also recorded: did not affect | Kin relative to values reported for drugs that do not substantially penetrate the CNS [1, 3]: more than 100 times | Brain Concentration (corrected for drug retained in vascular volume) [1, 7]: 5504.5 ± 961.7 pmol/g | Kin [1, 7]: 0.198+ ± 0.035 mL/g/min | Brain Concentration (corrected for drug retained in vascular volume) [1, 8]: 6558.8 pmol/g | Kin [1, 8]: 0.236 mL/g/min | Brain Concentration (corrected for drug retained in vascular volume) [1, 9]: 5279.1 pmol/g | Kin [1, 9]: 0.190 mL/g/min | Brain Concentration (corrected for drug retained in vascular volume) [1, 10]: 4675.5 pmol/g | Kin [1, 10]: 0.168 mL/g/min | Brain Concentration (corrected for drug retained in vascular volume) [1, 11]: 5803.0 ± 278.8 pmol/g | Kin [1, 11]: 0.212 ± 0.010 mL/g/min | Brain Concentration (corrected for drug retained in vascular volume) [1, 12]: 5574.4 pmol/g | Kin [1, 12]: 0.203 mL/g/min | Brain Concentration (corrected for drug retained in vascular volume) [1, 13]: 6113.5 pmol/g | Kin [1, 13]: 0.223 mL/g/min | Brain Concentration (corrected for drug retained in vascular volume) [1, 14]: 5721.1 pmol/g | Kin [1, 14]: 0.209 mL/g/min | Average Kin of Compound A (absence of Quinidine) compared with Compound B (absence of Pargyline) ([1]; rat, in vivo): higher | Potential to penetrate the brain ([1]; rat, in vivo): good potential
